Experimental data published in PubChem BioAssay (NCI).
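96-well plates; 48 h exposure; 5 concentrations. Endpoints by linear interpolation between flanking doses. Not reached: highest tested concentration assigned. Definition used: TGI = concentration required for complete inhibition of growth.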 Where a SMILES comes first, the peptide text is derived from it. [ ]: non-standard residue; d: D form. The star is where a group is joined. ξ: configuration not given here. ξF = NC(Cc1ccccc1)C(=O)O; Cbz = O=C(OCc1ccccc1)*; Aib = CC(C)(N)C(=O)O

Columns and labels:
Experiment in all cases: NCI anticancer screen, dose series, 48 h
EKVX NSCLC = test system: EKVX NSCLC
HOP-92 NSCLC = test system: HOP-92 NSCLC
MDA-MB-231 breast = test system: MDA-MB-231 breast
OVCAR-5 ovarian = test system: OVCAR-5 ovarian
SF-295 CNS = test system: SF-295 CNS
SK-MEL-2 melanoma = test system: SK-MEL-2 melanoma
SK-MEL-28 melanoma = test system: SK-MEL-28 melanoma
UACC-257 melanoma = test system: UACC-257 melanoma
HT29 colon = test system: HT29 colon
SR leukemia = test system: SR leukemia

SMILES | TGI (EKVX NSCLC) [µM] | TGI (HOP-92 NSCLC) [µM] | TGI (MDA-MB-231 breast) [µM] | TGI (OVCAR-5 ovarian) [µM] | TGI (SF-295 CNS) [µM] | TGI (SK-MEL-2 melanoma) [µM] | TGI (SK-MEL-28 melanoma) [µM] | TGI (UACC-257 melanoma) [µM] | TGI (HT29 colon) [µM] | TGI (SR leukemia) [µM]
Cc1cn(C2CC(n3cc(Cn4cc(F)c(=O)[nH]c4=O)nn3)C(CO)O2)c(=O)[nH]c1=O (stereo unspecified) | > 100 | > 100 | > 100 | > 100 | > 100 | > 100 | > 100 | > 100 |  | 
CCN1CC(C)Cn2c(=O)[nH]c3cc(Br)cc1c32 (stereo unspecified) | 52 |  | > 100 | > 100 | > 100 | > 100 | > 100 | > 100 | > 100 | 
CC(C)CCCC(C)[C@H]1CCC2[C@@H]3CCC4Cc5nc6c(nc5C[C@]4(C)C3CC[C@@]21C)CC1CC[C@@H]2C(C[C@@H](O)[C@@]3(C)C2C[C@@H]2OC4(CCC(C)CO4)C(C)[C@@H]23)[C@@]1(C)C6 (stereo partly specified) | > 100 | > 100 | > 100 | > 100 | > 100 |  | > 100 | > 100 | > 100 | > 100
CCCCOC(=O)CNC(=O)OCCCCC#CC#CCCCCOC(=O)NCC(=O)OCCCC | > 100 |  |  | > 100 | > 100 |  |  | > 100 | > 100 | > 100
CCCCCc1cc(OC(=O)c2c(O)cc(OC)cc2CCCCC)cc(O)c1C(=O)O | 39.9 | 31 |  | 34.1 | 35.4 | 31.6 | 32.9 |  | 29.9 | 
COC1=CC(=O)c2ccccc2C1(CCC=C(C)C)C1=NC(C)(C)CO1 (stereo unspecified) | > 100 | > 100 |  |  | > 100 | > 100 | > 100 | > 100 | > 100 | > 100
O=C(NCCN(CCNC(=O)c1cccc(=O)n1O)CCN(CCNC(=O)c1cccc(=O)n1O)CCNC(=O)c1cccc(=O)n1O)c1cccc(=O)n1O |  | > 100 | > 100 | > 100 | > 100 | > 100 | > 100 | > 100 | > 100 | 
CSc1nc(NC2CCCC2)c2cc[nH]c2n1 | > 100 | > 100 | > 100 |  | > 100 |  | > 100 | > 100 | > 100 | 61.6
CCNC(=O)Nc1cccc(C)n1 | > 100 | > 100 | > 100 | > 100 | > 100 |  | > 100 | > 100 | > 100 | > 100
Cc1ccc(C(=O)OC[C@H]2CC[C@@H](n3cc(N(C)C4CCCCC4)c(=O)[nH]c3=O)O2)cc1 | > 100 |  | 41.3 | 81 | 43.1 | > 100 | > 100 | 98.5 | 37.8 | > 100
CN(C)c1ccc(/C=N/Nc2nc3ccccc3c(=O)n2-c2ccccc2)cc1 |  | 85.9 | > 100 | > 100 | > 100 |  | > 100 | > 100 | > 100 | > 100
Cc1ccc(F)cc1NC(=O)O/N=C(\Cl)C(C)C | 15.5 | 7.07 | 32.8 | 31.7 | > 61.1 | 35.4 | 38 | 46.7 | 37 | 
CN(C)c1ccc(N2C(=S)SC(=Nc3ccccc3)C2=Nc2ccccc2)cc1 |  |  | > 100 | > 100 | > 100 | > 100 | > 100 |  |  | > 100
N/N=C(\C(=O)Nc1c(Cl)cc([N+](=O)[O-])cc1Cl)C(c1cnc2ccc([N+](=O)[O-])cc2n1)[N+](=O)[O-] (stereo unspecified) | > 100 | > 100 |  | > 100 | > 100 | > 100 | > 100 | > 100 | > 100 | > 100
CC(C)(NC(=O)OCc1ccccc1)C(=O)NC(Cc1ccccc1)C(=O)O (stereo unspecified) (Cbz-[Aib]-[ξF]-OH) |  | > 100 | > 100 | > 100 | > 100 | > 100 | > 100 | > 100 | > 100 | 
CCC1C(=O)C[C@H]2[C@@H]3C(O)CC4=CC(=O)CC[C@]4(C)[C@H]3CC[C@]12C (stereo partly specified) | > 50 | > 50 | > 50 | > 50 | > 50 | > 50 | > 50 | > 50 | > 50 | 
O=C1C(Br)=CC2([N+](=O)[O-])CCNc3c(O)c4c5c(c3C2=C1Br)=NCCC=5C=N4 (stereo unspecified) | 7.43 | 2.07 |  | 2.39 | 4.63 | 3.15 | 9.95 | 0.887 | 7.24 | 

SMILES | TGI (EKVX NSCLC) [µM] | TGI (HOP-92 NSCLC) [µM] | TGI (MDA-MB-231 breast) [µM] | TGI (OVCAR-5 ovarian) [µM] | TGI (SF-295 CNS) [µM] | TGI (SK-MEL-2 melanoma) [µM] | TGI (SK-MEL-28 melanoma) [µM] | TGI (UACC-257 melanoma) [µM] | TGI (HT29 colon) [µM] | TGI (SR leukemia) [µM]
COC1C(O)CC(OC2C(C)OC(Oc3cc(O)c4c(O)c5c(cc4c3)C[C@@H]([C@H](OC)C(=O)[C@@H](O)[C@@H](C)O)[C@H](OC3CC(OC4CC(OC6CC(C)(O)C(O)C(C)O6)C(O)C(C)O4)C(O)C(C)O3)C5=O)CC2OC(C)=O)OC1C (stereo partly specified) | > 100 |  | > 100 | > 100 |  | > 100 | > 100 |  | > 100 | > 100
CC1=NOC2(C1)/C(=N/O)CCC/C2=N\O (stereo unspecified) | > 100 |  | > 100 | > 100 | > 100 | > 100 | > 100 | > 100 | > 100 | > 100
COc1ccc2c(c1)O[C@@H]1C(O)Oc3cc(OC)c(OC)cc3[C@]1(O)C2=O (stereo partly specified) | > 100 |  | > 100 | > 100 | > 100 | > 100 | > 100 | > 100 | > 100 | 
O=C(c1ccc(Cl)cc1)c1ccc(OCC(=O)N2CCN(c3ccccc3)CC2)cc1 | > 100 | > 100 |  | > 100 | > 100 | > 100 | > 100 | > 100 | > 100 | > 100
S=C1c2ccccc2NC(=NC2CCCC2)C2CSCN12 (stereo unspecified) | > 100 |  | > 100 | > 100 | > 100 | > 100 | > 100 | > 100 | > 100 | > 100
CCOC/N=C(/N)NC#N | > 100 | > 100 |  | > 100 | > 100 | > 100 | > 100 | > 100 | > 100 | > 100
COc1cc(OC)c2c(O)cc(CC(C)O)cc2c1 (stereo unspecified) | > 100 | > 100 |  | > 100 | > 100 | > 100 | > 100 | > 100 | > 100 | > 100
COc1cc(-c2nc3cc(F)ccc3s2)ccc1O | 53.5 |  | > 100 | > 100 | > 100 | > 100 | > 100 | 66.3 | > 100 | 75.7
COC(=O)C12Oc3ccc(-c4ccc5c(c4O)C(=O)C4=CCC(C)C(O)C4(C(=O)OC)O5)c(O)c3C(=O)C1=CCC(C)C2O (stereo unspecified) | 4.97 | 3.21 |  | 3.98 | 6.05 | 2.82 | 3.51 | 4.95 | 4.61 | > 100
COc1ccc2c3c1OC1CC(O)C=CC31CCN(C)C2 (stereo unspecified) | > 150 | > 150 |  | > 150 | > 150 | > 150 | > 150 | > 150 | > 150 | 
CC(=O)NCCCCNCCCNC(C)=O | > 100 | > 100 | > 100 | > 100 | > 100 |  | > 100 | > 100 | > 100 | 
CSc1c(C(=O)Nc2ccccc2)c(N)nn1-c1ccccc1 | > 100 |  | > 100 | > 100 |  | > 100 | > 100 | > 100 | > 100 | > 100
CCOC(=O)/C(=C\NCC(O)c1ccccc1)c1nc2ccccc2[nH]1 (stereo unspecified) | 91.5 | 65.5 |  | 83.8 | 67 |  | 39.6 | 42.5 | 56.7 | 42.7
CC(=O)OC(Cc1cc(C=C(C(F)(F)F)C(F)(F)F)cc(C)n1)(C(F)(F)F)C(F)(F)F | 5.87 | 2.32 | 4.65 | 4.58 | 8.21 | > 100 | 2.85 |  | 5.32 | 
C=CC(=O)N1C/C(=C\c2ccc(N(C)C)cc2)C(=O)/C(=C/c2ccc(N(C)C)cc2)C1 | > 100 | > 100 | > 100 | > 100 | > 100 | > 100 | > 100 | > 100 | > 100 | 
CC(C)/C(Cl)=N/OC(=O)Nc1ccc(F)c(Cl)c1 | 5.17 | 3 | 30.7 | 34.6 | 29.8 | 34.2 | 5.46 | 26.5 | 13.3 | 
O=C(Nc1ccccc1F)c1c(O)nc2sccn2c1=O | > 10 |  | > 10 | > 10 | > 10 | > 10 | > 10 |  | > 10 | > 10
